Source: PubChem BioAssay AID488890 (Southern Research Specialized Biocontainment Screening …, 2010)
Results filed as inconclusive are left out. The source made the active and inactive calls. How the calls were made is not given here.

The compounds below were run on Mycobacterium tuberculosis non-replicating, growth inhibition (assay: growth inhibition of non-replicating M. tuberculosis (AID 488890)).
In the case of Cc1ccc(CCC(=O)Nc2ccc([N+](=O)[O-])cc2)o1, the IC50 is reported as 15.1 µM (inactive). COc1ccc(C(=O)CCN2CCCCCC2)cc1 gave an IC50 of 2.05 µM. CC/C(=C\c1oc2cc3ccccc3cc2[n+]1CC)Nc1ccccc1 showed an IC50 of 3.14 µM. In the case of CC(C)OC(=O)C(C)Oc1ccc(C(=O)NCCc2ccccc2)cc1 (configuration not stated), the IC50 is reported as 11.6 µM (inactive). In the case of c1ccc2sc(SCc3ccc(-c4nnco4)cc3)nc2c1, the IC50 is reported as 13.2 µM (inactive). In the case of C[C@H](NC(=O)c1[nH]cnc1C(=O)Nc1ccccc1)C(=O)OC(C)(C)C, the IC50 is reported as 18.9 µM (inactive). With COc1ccc(-c2nnn(CC(=O)OC3CCCCC3)n2)cc1OC the IC50 was 7.74 µM. Nc1ccccc1Nc1ccccc1 was tested, and the IC50 was 1.81 µM. In the case of COC(=O)C(O)(c1ccc(NC(=S)NC(=O)c2ccccc2)cc1)C(F)(F)F (configuration not stated), the IC50 is reported as 14.8 µM (inactive). O=c1c2c(nc3c(-c4ccc(Cl)cc4)c[nH]n13)CCC2 was tested, and the IC50 was 4.22 µM. For COC(CNC(=O)c1ccc2c3c(onc13)-c1ccccc1C2=O)OC, the IC50 was 2.4 µM. In the case of O=C(CCNc1ccc(Cl)c(C(F)(F)F)c1)c1ccco1, the IC50 is reported as 5.63 µM. With CCOC(=O)c1cc2cc3ccccc3cc2oc1=O the IC50 was 37.6 µM (inactive). CCOc1ccc(NC(=O)CCc2ccc(C)o2)cc1 gave an IC50 of 7.77 µM. In the case of COc1ccc(C(C)NC(=O)CCc2ccccc2)cc1 (configuration not stated), the IC50 is reported as 34.9 µM (inactive). CCOC(=O)c1sc(NC(=O)CCN2CCOCC2)c(C(=O)OCC)c1C showed an IC50 of 1.73 µM. For O=C(CNC(=O)c1ccc(Br)cc1)c1ccc(Br)cc1, the IC50 was 18.3 µM (inactive). O=C(Nc1ccc(-c2nc3ccccc3c(=O)o2)cc1)c1ccco1 was tested, and the IC50 was 0.35 µM. With COc1ccc(CN=C(C#N)C2=C(O)c3ccccc3C2=O)cc1 the IC50 was 8.56 µM. Compound O=C(NNC(=O)c1ccccc1F)c1ccc(-c2ccc(Cl)cc2)o1 has an IC50 of 1.53 µM. O=[N+]([O-])c1ccc(-c2nc3ccc([N+](=O)[O-])cc3[nH]2)cc1 was tested, and the IC50 was 16 µM (inactive). In the case of CN(CCOCCOc1ccc(F)cc1)Cc1ccccc1, the IC50 is reported as 10.9 µM (inactive). With CC(=O)Oc1ccc(N(C(C)=O)S(=O)(=O)c2cccs2)c2ccccc12 the IC50 was 11.6 µM (inactive). For CC1CCN(C(=O)C2COc3ccccc3O2)CC1 (configuration not stated), the IC50 was 0.23 µM. CC1CCN(C(=O)c2ccc(-c3ccccc3Cl)o2)CC1 showed an IC50 of 5.32 µM. Cc1cccc(OC(=O)c2sc3ncn(C)c(=O)c3c2C)c1 showed an IC50 of 4.61 µM. For Cc1cccc(OCC(O)Cn2c(=N)n(Cc3ccccc3)c3ccccc32)c1 (configuration not stated), the IC50 was 20.4 µM (inactive). CN1CCN(c2ccc(NC(=O)c3ccc(-c4ccc(Cl)cc4)o3)cc2)CC1 showed an IC50 of 5.1 µM. For CN(/N=C/c1ccc([N+](=O)[O-])o1)c1ccccc1, the IC50 was 13.4 µM (inactive). In the case of Cc1[nH]n(-c2ccccc2)c(=O)c1C=Nc1cnc2ccccc2c1, the IC50 is reported as 6.23 µM. CSc1nc(=S)cc(C)[nH]1 was tested, and the IC50 was 6.23 µM. With Cc1ccsc1C(=O)OCC(=O)Nc1nnc(-c2ccccc2)o1 the IC50 was 18.2 µM (inactive). For O=c1cc(-c2ccncc2)oc2c1ccc1ccccc12, the IC50 was 22.3 µM (inactive). For CN1C(=O)CC(Sc2ccccc2C(=O)O)C1=O (configuration not stated), the IC50 was 23.6 µM (inactive). For Cc1cc(NCCCn2ccnc2)n2ncc(-c3ccc(Cl)cc3)c2n1, the IC50 was 13.1 µM (inactive). In the case of O=C(NC1=NCCS1)c1ccc(-c2ccc(Cl)cc2)o1, the IC50 is reported as 11.9 µM (inactive). In the case of CSc1ccc(C(=O)C2CCCN(Cc3cc4ccccc4[nH]3)C2)cc1 (configuration not stated), the IC50 is reported as 11.1 µM (inactive). For O=c1c2ccccc2sn1-c1ccccc1, the IC50 was 6.8 µM. In the case of Cc1ccc(Sc2ccc(C=C3C(=O)N(C)C(=O)N(C)C3=O)o2)cc1, the IC50 is reported as 3.04 µM. For CCOC(=O)C(=NCCOC)NNc1cc(Cl)ccc1Cl, the IC50 was 30.4 µM (inactive). In the case of CC(C)CSc1nnc2c3ccccc3n(C)c2n1, the IC50 is reported as 26.3 µM (inactive). In the case of CC1=NN(c2ccc(C(=O)O)cc2)C(=O)/C1=C\c1ccc(OC(=O)c2cccs2)cc1, the IC50 is reported as 7.5 µM. In the case of O=C(c1cccs1)N1CCN(c2ccc(Cl)cc2)CC1, the IC50 is reported as 27.2 µM (inactive). O=C(OCn1ncc(Br)c(Br)c1=O)c1ccccc1Cl was tested, and the IC50 was 6.27 µM. With CCOc1cc(C=O)cc(N=Nc2cccc([N+](=O)[O-])c2)c1O the IC50 was 1.31 µM. O=C(Nc1nnc(-c2ccco2)o1)c1cccc2ccccc12 was tested, and the IC50 was 19.1 µM (inactive). Work on O=C(OCC#CCSc1nnc(-c2ccccc2)o1)c1ccco1 yielded an IC50 of 1.44 µM. Compound Cc1cccc(C(=O)Nc2nnc(-c3cccnc3)o2)c1 has an IC50 of 7.46 µM. O=C(Nc1nc2ccccc2[nH]1)c1ccc(F)cc1 was tested, and the IC50 was 13 µM (inactive). With O=C(N/N=C/c1cc([N+](=O)[O-])ccc1O)C12CC3CC(CC(C3)C1)C2 the IC50 was 1.15 µM. For CCCCCCCC(=O)N/N=C/c1ccc([N+](=O)[O-])o1, the IC50 was 2.63 µM. In the case of Cc1cc(C)cc(NC(=O)CCc2ccc(C)o2)c1, the IC50 is reported as 1.42 µM. In the case of Cc1ccc(C(=O)N2N=C(CC(C)C)CC2(O)C(F)(F)F)o1 (configuration not stated), the IC50 is reported as 6.3 µM. COc1ccc(/C=C/c2cc(-c3ccc(C)cc3)o[n+]2C)cc1 showed an IC50 of 4.7 µM. O=C(Nc1ccc(F)cc1F)c1cc2ccccc2oc1=O was tested, and the IC50 was 25.1 µM (inactive). COc1ccc2nc(/N=C(\N)NC(=O)C(C)(C)C)nc(C)c2c1 was tested, and the IC50 was 17.4 µM (inactive). In the case of CCOc1ccc(C(=O)Nc2ccc(N3CCN(C)CC3)cc2)cc1Br, the IC50 is reported as 30.5 µM (inactive). With Cc1ccc(CC(=O)Nc2ccc(Cl)cn2)cc1 the IC50 was 1.06 µM. For CCc1ccc(C(=O)COC(=O)c2ccc(Cl)nc2)cc1, the IC50 was 17.3 µM (inactive). For O=C1c2cc([N+](=O)[O-])cc3cc([N+](=O)[O-])cc(c23)C(=O)N1c1ccccn1, the IC50 was 3.46 µM. CCCCN(CC)CCNC(=O)c1cc2c(-c3ccc(Cl)cc3)nn(C)c2s1 showed an IC50 of 8.57 µM. With O=c1cc(C(F)(F)F)[nH]c2c(C(F)(F)F)cccc12 the IC50 was 5.78 µM.
